Experimental data published in US7902181B2, “Compounds 010” (AstraZeneca AB, priority 2007, dated 2011).
Counter-ions that a name gives are not always drawn.

Target: Recombinant Human (rh) DPP1 (Homo sapiens, UniProt P53634)
Test: Fluorescence Assay for Recombinant Human (rh) DPP1
Assay type: biochemical
Settings: rhDPP1; substrate H-Gly-Arg-AMC; pH5.0; 30 min pre-incubation, 60 min reaction at 22° C.; highest concentration 10 μM; read-out: DPP1 activity, pIC50 (converted)
Outline: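 Release of AMC from 100 μM H-Gly-Arg-AMC by rhDPP1 ([…]) in 25 mM piperazine pH 5.0, 50 mM NaCl, 5 mM DTT, 0.01% Triton X-100, 1% DMSO, 22 °C. Inhibitors (12-point half-log, top 10 μM) preincubated 30 min, reaction 60 min, fluorescence at 350/450 nm; pIC50 from 4-parameter logistic fit.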

Chain of Recombinant Human (rh) DPP1 (P53634 25-463): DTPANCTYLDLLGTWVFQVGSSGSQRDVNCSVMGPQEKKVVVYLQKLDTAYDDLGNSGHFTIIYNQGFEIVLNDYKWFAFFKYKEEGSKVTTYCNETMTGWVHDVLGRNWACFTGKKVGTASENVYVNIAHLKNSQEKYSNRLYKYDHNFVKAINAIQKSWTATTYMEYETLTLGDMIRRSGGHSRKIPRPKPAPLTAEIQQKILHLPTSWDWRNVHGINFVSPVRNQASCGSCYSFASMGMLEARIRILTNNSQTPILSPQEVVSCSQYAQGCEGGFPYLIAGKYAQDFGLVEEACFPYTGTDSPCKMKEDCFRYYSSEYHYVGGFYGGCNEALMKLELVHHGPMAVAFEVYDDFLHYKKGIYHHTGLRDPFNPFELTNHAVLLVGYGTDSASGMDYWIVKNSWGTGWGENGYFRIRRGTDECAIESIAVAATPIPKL

Question: For `CC(=O)NCc1cccc(-c2ccc(C[C@@H](C#N)NC(=O)[C@@H]3CCCCN3)cc2)c1` [Example 90, (S)-N-((S)-2-(3′-(Acetamidomethyl)biphenyl-4-yl)-1-cyanoethyl)-piperidine-2-carboxamide Trifluoroacetate], which IC50 is on record?
Answer: 126 nM

Question: How did the IC50 turn out when `N#CC1CCN(S(=O)(=O)c2ccc(-c3ccc(C[C@@H](C#N)NC(=O)[C@@H]4CCCCN4)cc3)cc2)CC1` [Example 91, (S)-N-((S)-1-Cyano-2-(4′-(4-cyanopiperidin-1-ylsulfonyl)biphenyl-4-yl)ethyl)piperidine-2-carboxamide Trifluoroacetate] was run?
Answer: 12.6 nM

Question: For `CN1CCN(S(=O)(=O)c2ccc(-c3ccc(C[C@@H](C#N)NC(=O)[C@@H]4CCCCN4)cc3)cc2)CC1` [Example 95, (S)-N-((S)-1-Cyano-2-(4′-(4-methylpiperazin-1-ylsulfonyl)biphenyl-4-yl)ethyl)piperidine-2-carboxamide Trifluoroacetate], which IC50 is on record?
Answer: 3.16 nM

Question: How did the IC50 turn out when `Cn1c(=O)oc2ccc(-c3ccc(C[C@@H](C#N)NC(=O)[C@@H]4CCCCN4)cc3)cc21` [Example 96, (S)-N-((S)-1-Cyano-2-(4-(3-methyl-2-oxo-2,3-dihydrobenzo[d]oxazol-5-yl)phenyl)ethyl)piperidine-2-carboxamide] was run?
Answer: 7.94 nM

Question: How did the IC50 turn out when `COCCn1c(=O)oc2ccc(-c3ccc(C[C@@H](C#N)NC(=O)[C@@H]4CCCCN4)cc3)cc21` [Example 97, (S)-N-((S)-1-Cyano-2-(4-(3-(2-methoxyethyl)-2-oxo-2,3-dihydrobenzo[d]-oxazol-5-yl)phenyl)ethyl)piperidine-2-carboxamide] was run?
Answer: 15.8 nM

Question: With `Cn1c(=O)sc2cc(-c3ccc(C[C@@H](C#N)NC(=O)[C@@H]4CCCCN4)cc3)ccc21` [Example 98, (S)-N-((S)-1-Cyano-2-(4-(3-methyl-2-oxo-2,3-dihydrobenzo[d]thiazol-6-yl)phenyl)ethyl)piperidine-2-carboxamide] as the molecule, how does the IC50 read?
Answer: 50.1 nM

Question: `N#C[C@H](Cc1ccc(-c2ccc3c(c2)sc(=O)n3CCO)cc1)NC(=O)[C@@H]1CCCCN1` [Example 99, (S)-N-((S)-1-Cyano-2-(4-(3-(2-hydroxyethyl)-2-oxo-2,3-dihydrobenzo[d]thiazol-6-yl)phenyl)ethyl)piperidine-2-carboxamide] was tested. Which IC50 did it give?
Answer: 63.1 nM

Question: With `N#Cc1ccc(-c2cccc(C[C@@H](C#N)NC(=O)[C@@H]3CCCCN3)c2)cc1` [Example 100, (S)-N-((S)-1-Cyano-2-(4′-cyanobiphenyl-3-yl)ethyl)piperidine-2-carboxamide Trifluoroacetate] as the molecule, how does the IC50 read?
Answer: 1000 nM

Question: Which IC50 does the source give for `CS(=O)(=O)c1cc(-c2ccc(C[C@@H](C#N)NC(=O)[C@@H]3CCCCN3)cc2)ccc1CC#N` [Example 101, (S)-N-((S)-1-Cyano-2-(4′-(cyanomethyl)-3′-(methylsulfonyl)biphenyl-4-yl)ethyl)-piperidine-2-carboxamide Trifluoroacetate] here?
Answer: 39.8 nM

Question: Which IC50 does the source give for `N#C[C@H](Cc1ccc(S(=O)(=O)c2ccccc2)cc1)NC(=O)[C@@H]1CCCCN1` [Example 102, (S)-N-((S)-1-Cyano-2-(4-(phenylsulfonyl)phenyl)ethyl)piperidine-2-carboxamide] here?
Answer: 3160 nM

Question: Which IC50 does the source give for `N#Cc1ccc(-c2ccc([C@H]3C[C@@]3(C#N)NC(=O)[C@@H]3CCCCN3)cc2)cc1` [Example 103, (S)-N-((1R,2R)-1-Cyano-2-(4′-cyanobiphenyl-4-yl)cyclopropyl)piperidine-2-carboxamide Trifluoroacetate] here?
Answer: 158 nM

Question: With `N#C[C@@]1(NC(=O)[C@@H]2CCCCN2)C[C@@H]1c1ccc(-c2ccc(S(=O)(=O)N3CCC3)cc2)cc1` [Example 104, (S)-N-((1R,2R)-2-(4′-(Azetidin-1-ylsulfonyl)biphenyl-4-yl)-1-cyanocyclopropyl)piperidine-2-carboxamide Trifluoroacetate] as the molecule, how does the IC50 read?
Answer: 79.4 nM

Question: With `N#C[C@H](Cc1ccc(-c2ccc(OC(F)(F)F)cc2)cc1)NC(=O)[C@@H]1CCCCN1` [Example 105, (S)-N-((S)-1-Cyano-2-(4′-(trifluoromethoxy)biphenyl-4-yl)ethyl)piperidine-2-carboxamide] as the molecule, how does the IC50 read?
Answer: 20 nM

Question: `CS(=O)(=O)c1ccc(-c2ccc(C[C@@H](C#N)NC(=O)[C@@H]3CCCCN3)cc2)cc1` [Example 106, (S)-N-((S)-1-Cyano-2-(4′-(methylsulfonyl)biphenyl-4-yl)ethyl)piperidine-2-carboxamide] was tested. Which IC50 did it give?
Answer: 12.6 nM

Question: `CCN1CCN(S(=O)(=O)c2ccc(-c3ccc(CC(C#N)NC(=O)[C@@H]4CCCCN4)cc3)cc2)CC1` (stereo partly drawn) [Example 107, ((2S)-N-(1-Cyano-2-(4′-(4-ethylpiperazin-1-ylsulfonyl)biphenyl-4-yl)ethyl)piperidine-2-carboxamide Ditrifluoroacetate] was tested. Which IC50 did it give?
Answer: 5.01 nM

Question: `CN1CCCN(S(=O)(=O)c2ccc(-c3ccc(CC(C#N)NC(=O)[C@@H]4CCCCN4)cc3)cc2)CC1` (stereo partly drawn) [Example 108, (2S)-N-(1-Cyano-2-(4′-(4-methyl-1,4-diazepan-1-ylsulfonyl)biphenyl-4-yl)ethyl)piperidine-2-carboxamide Ditrifluoroacetate] was tested. Which IC50 did it give?
Answer: 31.6 nM

Question: Which IC50 does the source give for `N#C[C@H](Cc1ccc(-c2cccc(CN3CCOCC3)c2)cc1)NC(=O)[C@@H]1CCCCN1` [Example 109, (S)-N-((S)-1-Cyano-2-(3′-(morpholinomethyl)biphenyl-4-yl)ethyl)piperidine-2-carboxamide Ditrifluoroacetate] here?
Answer: 158 nM

Question: `N#C[C@H](Cc1ccc(-c2ccc3c(c2)CCNC3)cc1)NC(=O)[C@@H]1CCCCN1` [Example 110, (S)-N-((S)-1-Cyano-2-(4-(1,2,3,4-tetrahydroisoquinolin-6-yl)phenyl)ethyl)piperidine-2-carboxamide Ditrifluoroacetate] was tested. Which IC50 did it give?
Answer: 158 nM
